Reference: ChEMBL document CHEMBL3352358, “Discovery of 2-(cyclohexylmethylamino)pyrimidines as a new class of reversible valosine containing protein inhibitors” (J Med Chem, 2014)

Molecular target: Transitional endoplasmic reticulum ATPase (Homo sapiens, UniProt P55072)
Experiment: biochemical
Type: cell-based
Settings: not given; call rule not given here

Sequence of Transitional endoplasmic reticulum ATPase (P55072 whole entry): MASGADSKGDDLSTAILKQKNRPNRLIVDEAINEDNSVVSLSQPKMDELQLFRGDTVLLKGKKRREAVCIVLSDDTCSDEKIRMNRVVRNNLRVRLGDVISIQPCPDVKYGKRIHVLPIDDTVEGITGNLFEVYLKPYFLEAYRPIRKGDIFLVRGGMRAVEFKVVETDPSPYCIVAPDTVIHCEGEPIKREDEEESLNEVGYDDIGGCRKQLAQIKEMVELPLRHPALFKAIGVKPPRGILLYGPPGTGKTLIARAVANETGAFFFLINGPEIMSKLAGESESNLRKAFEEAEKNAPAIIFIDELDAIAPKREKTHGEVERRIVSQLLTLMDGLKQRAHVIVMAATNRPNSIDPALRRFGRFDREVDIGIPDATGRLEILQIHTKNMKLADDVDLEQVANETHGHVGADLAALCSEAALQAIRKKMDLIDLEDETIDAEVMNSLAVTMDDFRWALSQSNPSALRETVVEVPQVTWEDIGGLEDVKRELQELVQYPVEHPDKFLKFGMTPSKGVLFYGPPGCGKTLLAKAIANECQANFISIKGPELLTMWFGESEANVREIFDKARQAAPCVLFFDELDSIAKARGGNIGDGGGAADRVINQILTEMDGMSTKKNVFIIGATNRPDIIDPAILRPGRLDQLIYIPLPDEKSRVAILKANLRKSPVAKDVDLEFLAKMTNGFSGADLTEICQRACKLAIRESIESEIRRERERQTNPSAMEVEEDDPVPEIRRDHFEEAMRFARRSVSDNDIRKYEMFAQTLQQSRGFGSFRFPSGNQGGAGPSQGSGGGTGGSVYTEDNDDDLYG

`O=C(O)[C@H]1CC[C@H](CNc2nc(-c3ccccc3)cc(-c3ccncc3)n2)CC1` and `O=C(O)[C@H]1CC[C@H](CNc2nc(-c3ccccc3)cc(-c3cccnc3)n2)CC1` are within 1.5-fold of each other in IC50: 1670 nM for the first, 1200 nM for the second.

Going from `NC(=O)[C@H]1CC[C@H](CNc2nc(NCc3ccccc3)cc(-c3cccc(C(F)(F)F)c3)n2)CC1` to `NC(=O)[C@H]1CC[C@H](CNc2nc(NCc3cccc(F)c3)cc(-c3ccccc3)n2)CC1`, the IC50 rises from 237 nM to 474 nM (2-fold).

Going from `Cc1cc(-c2ccccc2)nc(SCc2ccccc2)n1` to `Cc1cc(-c2ccccc2)nc(SCc2ccc(C(=O)O)cc2)n1`, the IC50 falls from > 37000 nM to 4800 nM. The second is the more potent here.

`Cc1cccc(-c2cc(-c3ccccc3)nc(NC[C@H]3CC[C@H](C(=O)O)CC3)n2)c1` and `O=C(O)[C@H]1CC[C@H](CNc2nc(-c3ccccc3)cc(-c3cccc(F)c3)n2)CC1` are within 1.5-fold of each other in IC50: 578 nM for the first, 552 nM for the second.

`Cc1ccccc1CNc1cc(-c2ccccc2)nc(NC[C@H]2CC[C@H](C(N)=O)CC2)n1` and `NC(=O)[C@H]1CC[C@H](CNc2nc(NCc3ccccc3Br)cc(-c3ccccc3)n2)CC1` are within 1.5-fold of each other in IC50: 9290 nM for the first, 7110 nM for the second.

Going from `O=C(O)[C@H]1CC[C@H](CNc2nc(-c3ccccc3)cc(-c3ccc(Cl)cc3)n2)CC1` to `Cc1ccc(-c2cc(-c3ccccc3)nc(NC[C@H]3CC[C@H](C(=O)O)CC3)n2)cc1`, the IC50 rises from 221 nM to 577 nM (2.6-fold). The first is the more potent here.

Compared with `O=C(O)[C@H]1CC[C@H](CNc2nc(-c3ccccc3)cc(-c3ccco3)n2)CC1`, `O=C(O)[C@H]1CC[C@H](CNc2nc(-c3ccccc3)cc(-c3ccoc3)n2)CC1` is 3.8-fold higher in IC50: 570 nM for the first, 2190 nM for the second.

`Cc1ccc(-c2cc(C)nc(NC[C@H]3CC[C@H](C(=O)O)CC3)n2)cc1` and `Cc1cc(-c2ccc(Cl)cc2)nc(NC[C@H]2CC[C@H](C(=O)O)CC2)n1` are within 1.5-fold of each other in IC50: 2700 nM for the first, 2600 nM for the second.

First: Cc1cc(-c2ccccc2)nc(NCc2cccc(C(=O)O)c2)n1
Second: Cc1cc(-c2ccccc2)nc(NCc2ccc(C(=O)O)cc2)n1
The IC50 of the first is higher: > 37000 nM for the first, 15400 nM for the second.

Compared with `O=C(O)[C@H]1CC[C@H](CNc2nc(-c3ccccc3)cc(N3CCOCC3)n2)CC1`, `Cc1cc(-c2ccccc2)nc(NC[C@H]2CC[C@H](C(=O)O)CC2)n1` is lower in IC50: > 10000 nM for the first, 2600 nM for the second. The second is the more potent here.

First: Cc1cc(-c2ccccc2)nc(SCCC(=O)O)n1
Second: Cc1cc(-c2ccccc2)nc(SCCc2ccc(C(=O)O)cc2)n1
The IC50 of the first is higher: > 37000 nM for the first, 20500 nM for the second.

First: CS(=O)(=O)c1cccc(-c2cc(-c3ccccc3)nc(NC[C@H]3CC[C@H](C(=O)O)CC3)n2)c1
Second: CS(=O)(=O)c1ccc(-c2cc(-c3ccccc3)nc(NC[C@H]3CC[C@H](C(=O)O)CC3)n2)cc1
The IC50 of the first is 9.4-fold lower: 116 nM for the first, 1090 nM for the second.

`Cc1ccccc1-c1cc(-c2ccccc2)nc(NC[C@H]2CC[C@H](C(=O)O)CC2)n1` and `O=C(O)[C@H]1CC[C@H](CNc2nc(-c3ccccc3)cc(-c3ccccc3Cl)n2)CC1` are within 1.5-fold of each other in IC50: 673 nM for the first, 700 nM for the second.

Compared with `NC(=O)[C@H]1CC[C@H](CNc2nc(NCc3ccccc3F)cc(-c3ccccc3)n2)CC1`, `NC(=O)[C@H]1CC[C@H](CNc2nc(NCc3ccccc3Cl)cc(-c3ccccc3)n2)CC1` is 4.1-fold higher in IC50: 1690 nM for the first, 6940 nM for the second.

Compared with `NC(=O)[C@H]1CC[C@H](CNc2nc(NCc3ccc(S(N)(=O)=O)cc3)cc(-c3ccccc3)n2)CC1`, `CS(=O)(=O)c1ccc(CNc2cc(-c3ccccc3)nc(NC[C@H]3CC[C@H](C(N)=O)CC3)n2)cc1` is higher in IC50: 5170 nM for the first, > 10000 nM for the second.

Compared with `Cc1cccc(-c2cc(C)nc(NC[C@H]3CC[C@H](C(=O)O)CC3)n2)c1`, `Cc1cc(-c2cccc(Cl)c2)nc(NC[C@H]2CC[C@H](C(=O)O)CC2)n1` is 2.4-fold lower in IC50: 11400 nM for the first, 4800 nM for the second.

First: NC(=O)[C@H]1CC[C@H](CNc2nc(NCc3cccc(Cl)c3)cc(-c3ccccc3)n2)CC1
Second: Cc1cccc(CNc2cc(-c3ccccc3)nc(NC[C@H]3CC[C@H](C(N)=O)CC3)n2)c1
The IC50 of the first is 1.6-fold higher: 2760 nM for the first, 1680 nM for the second.

First: Cc1cc(-c2ccc(F)cc2)nc(NC[C@H]2CC[C@H](C(=O)O)CC2)n1
Second: COc1ccc(-c2cc(C)nc(NC[C@H]3CC[C@H](C(=O)O)CC3)n2)cc1
The IC50 of the first is lower: 8400 nM for the first, > 37000 nM for the second. The first is the more potent here.

First: Nc1ccc(-c2cc(-c3ccccc3)nc(NC[C@H]3CC[C@H](C(=O)O)CC3)n2)cc1[N+](=O)[O-]
Second: O=C(O)[C@H]1CC[C@H](CNc2nc(-c3ccccc3)cc(-c3cccc([N+](=O)[O-])c3)n2)CC1
The IC50 of the first is 3.4-fold lower: 60 nM for the first, 201 nM for the second.

`NC(=O)[C@H]1CC[C@H](CNc2nc(NCc3ccc(F)cc3)cc(-c3ccccc3)n2)CC1` and `Cc1ccc(CNc2cc(-c3ccccc3)nc(NC[C@H]3CC[C@H](C(N)=O)CC3)n2)cc1` are within 1.5-fold of each other in IC50: 2430 nM for the first, 2180 nM for the second.

`COc1ccccc1-c1cc(C)nc(NC[C@H]2CC[C@H](C(=O)O)CC2)n1` and `Cc1cc(-c2ccccc2C)nc(NC[C@H]2CC[C@H](C(=O)O)CC2)n1` cannot be ordered by IC50: > 37000 nM for the first, > 37000 nM for the second.

Compared with `COc1ccccc1-c1cc(-c2ccccc2)nc(NC[C@H]2CC[C@H](C(=O)O)CC2)n1`, `O=C(O)[C@H]1CC[C@H](CNc2nc(-c3ccccc3)cc(-c3ccccc3F)n2)CC1` is 22-fold lower in IC50: 3040 nM for the first, 141 nM for the second. The second is the more potent here.

Going from `O=C(O)[C@H]1CC[C@H](CNc2nccc(-c3ccccc3)n2)CC1` to `O=C(O)[C@H]1CC[C@H](CNc2nc(-c3ccccc3)cc(-c3ccccc3)n2)CC1`, the IC50 falls from 8700 nM to 300 nM (29-fold). The second is the more potent here.

Going from `[N-]=[N+]=Nc1cccc(-c2cc(-c3ccccc3)nc(NC[C@H]3CC[C@H](C(=O)O)CC3)n2)c1` to `O=C(O)[C@H]1CC[C@H](CNc2nc(-c3ccccc3)cc(-c3cccc(Cl)c3)n2)CC1`, the IC50 falls from 879 nM to 483 nM (1.8-fold). The second is the more potent here.

Going from `O=C(O)[C@H]1CC[C@H](CNc2nc(-c3ccccc3)cc(-c3ccc(F)cc3)n2)CC1` to `Nc1ccc(-c2cc(-c3ccccc3)nc(NC[C@H]3CC[C@H](C(=O)O)CC3)n2)cc1`, the IC50 falls from 742 nM to 112 nM (6.6-fold). The second is the more potent here.

Compared with `O=C(O)[C@H]1CC[C@H](CNc2nc(-c3ccccc3)cc(-c3ccc([N+](=O)[O-])cc3)n2)CC1`, `COc1ccc(-c2cc(-c3ccccc3)nc(NC[C@H]3CC[C@H](C(=O)O)CC3)n2)cc1` is 2.4-fold lower in IC50: 2190 nM for the first, 921 nM for the second.

First: COc1cccc(-c2cc(C)nc(NC[C@H]3CC[C@H](C(=O)O)CC3)n2)c1
Second: COc1cccc(-c2cc(-c3ccccc3)nc(NC[C@H]3CC[C@H](C(=O)O)CC3)n2)c1
The IC50 of the first is higher: > 37000 nM for the first, 543 nM for the second.

`Cc1cc(-c2ccccc2)nc(Sc2ccc(C(=O)O)cc2)n1` and `Cc1cc(-c2ccccc2)nc(S(=O)(=O)Cc2ccc(C(=O)O)cc2)n1` cannot be ordered by IC50: > 37000 nM for the first, > 37000 nM for the second.

`NC(=O)[C@H]1CC[C@H](CNc2nc(NCc3cccc([N+](=O)[O-])c3)cc(-c3ccccc3)n2)CC1` and `COc1cccc(CNc2cc(-c3ccccc3)nc(NC[C@H]3CC[C@H](C(N)=O)CC3)n2)c1` are within 1.5-fold of each other in IC50: 4610 nM for the first, 5640 nM for the second.

`NC(=O)[C@H]1CC[C@H](CNc2nc(NCc3ccc(Cl)cc3)cc(-c3ccccc3)n2)CC1` and `COc1ccc(CNc2cc(-c3ccccc3)nc(NC[C@H]3CC[C@H](C(N)=O)CC3)n2)cc1` are within 1.5-fold of each other in IC50: 3470 nM for the first, 5040 nM for the second.

Compared with `O=C(O)[C@H]1CC[C@H](CNc2nc(-c3ccccc3)cc(-c3ccc4[nH]ccc4c3)n2)CC1`, `O=C(O)[C@H]1CC[C@H](CNc2nc(Nc3ccccc3)cc(-c3ccccc3)n2)CC1` is 4.2-fold lower in IC50: 150 nM for the first, 36 nM for the second.

`NC(=O)[C@H]1CC[C@H](CNc2nc(NCc3cccc(S(N)(=O)=O)c3)cc(-c3ccccc3)n2)CC1` and `COc1ccccc1CNc1cc(-c2ccccc2)nc(NC[C@H]2CC[C@H](C(N)=O)CC2)n1` are within 1.5-fold of each other in IC50: 7610 nM for the first, 8860 nM for the second.

Compared with `Cc1cc(-c2ccccc2)nc(SCc2ccc(C(=O)NS(=O)(=O)C(F)(F)F)cc2)n1`, `O=C(O)[C@H]1CC[C@H](CNc2nc(NC3CCCCC3)cc(-c3ccccc3)n2)CC1` is 5-fold lower in IC50: 21600 nM for the first, 4310 nM for the second. The second is the more potent here.

Tested on: not listed separately
Experiment: Inhibition of cell proliferation of human HCT116 cells after 72 hrs by thermostable firefly luciferase based assay
Type: functional, HCT-116
Settings: Homo sapiens, HCT-116, 72 h; read-out: IC50

`NC(=O)[C@H]1CC[C@H](CNc2nc(NCc3ccccc3)cc(-c3cccc(C(F)(F)F)c3)n2)CC1` showed an IC50 of 7970 nM.

Same assay, conditions: hct-116

In the case of `COC(=O)[C@H]1CC[C@H](CNc2nc(NCc3ccccc3)cc(-c3ccccc3)n2)CC1`, the IC50 is reported as “Not Active”.
